Experimental data: patent US20240425496A1, “AZETIDINYL PYRIMIDINES AND USES THEREOF” (Aerie Pharmaceuticals, Inc., priority 2021, published 2024)

Tests used:
JAK1 = JAK1 (Homo sapiens (Human), UniProt P23458); test: JAK kinase assay (KINASE-GLO luminescent), JAK1 enzyme; assay type: biochemical; settings: JAK1 enzyme 10 nM, Abl peptide substrate
Description: (§1) All compounds were initially prepared as 10 mM stocks in anhydrous dimethylsulfoxide (DMSO). […] Test compounds were then serially diluted 1:5 in DMSO for an 11-point concentration response and further diluted in the assay buffer bringing all compound concentrations to a final range of 100 μM to 10 μM in 2.5% DMSO. […] The reaction was initiated by the addition of 10 μL of 4× stock solution ATP (2 μM). Reactions were thoroughly mixed manually, covered, and allowed to incubate at room temperature for 75 min. Protein kinase activity was quantitated using Promega's KINASE-GLO™ luminescent Kinase Assay Kit according to the manufacturer's directions. ATP concentrations remaining in Test wells following the termination of the enzymatic reaction were compared against control wells containing equivalent amounts of DMSO containing no inhibitor (CTRL). […] Percent of Control (POC) values were determined for each concentration of compound tested according to the equation: […]
(§2) IC50 values were calculated using the following 4-parameter logistic curve-fitting algorithm:
(§3) Compounds were prepared in the exact same manner as described in the ROCK Kinase Assay with the exception to the substrate and enzyme. […] All other steps and solutions remain identical to the ROCK Kinase Assay above.

TYK2 = TYK2 (Homo sapiens (Human), UniProt P29597); test: JAK kinase assay (KINASE-GLO luminescent), TYK2 enzyme; assay type: biochemical; settings: TYK2 enzyme 10 nM, Abl peptide substrate
Chain of TYK2 (P29597 whole entry, species assumed): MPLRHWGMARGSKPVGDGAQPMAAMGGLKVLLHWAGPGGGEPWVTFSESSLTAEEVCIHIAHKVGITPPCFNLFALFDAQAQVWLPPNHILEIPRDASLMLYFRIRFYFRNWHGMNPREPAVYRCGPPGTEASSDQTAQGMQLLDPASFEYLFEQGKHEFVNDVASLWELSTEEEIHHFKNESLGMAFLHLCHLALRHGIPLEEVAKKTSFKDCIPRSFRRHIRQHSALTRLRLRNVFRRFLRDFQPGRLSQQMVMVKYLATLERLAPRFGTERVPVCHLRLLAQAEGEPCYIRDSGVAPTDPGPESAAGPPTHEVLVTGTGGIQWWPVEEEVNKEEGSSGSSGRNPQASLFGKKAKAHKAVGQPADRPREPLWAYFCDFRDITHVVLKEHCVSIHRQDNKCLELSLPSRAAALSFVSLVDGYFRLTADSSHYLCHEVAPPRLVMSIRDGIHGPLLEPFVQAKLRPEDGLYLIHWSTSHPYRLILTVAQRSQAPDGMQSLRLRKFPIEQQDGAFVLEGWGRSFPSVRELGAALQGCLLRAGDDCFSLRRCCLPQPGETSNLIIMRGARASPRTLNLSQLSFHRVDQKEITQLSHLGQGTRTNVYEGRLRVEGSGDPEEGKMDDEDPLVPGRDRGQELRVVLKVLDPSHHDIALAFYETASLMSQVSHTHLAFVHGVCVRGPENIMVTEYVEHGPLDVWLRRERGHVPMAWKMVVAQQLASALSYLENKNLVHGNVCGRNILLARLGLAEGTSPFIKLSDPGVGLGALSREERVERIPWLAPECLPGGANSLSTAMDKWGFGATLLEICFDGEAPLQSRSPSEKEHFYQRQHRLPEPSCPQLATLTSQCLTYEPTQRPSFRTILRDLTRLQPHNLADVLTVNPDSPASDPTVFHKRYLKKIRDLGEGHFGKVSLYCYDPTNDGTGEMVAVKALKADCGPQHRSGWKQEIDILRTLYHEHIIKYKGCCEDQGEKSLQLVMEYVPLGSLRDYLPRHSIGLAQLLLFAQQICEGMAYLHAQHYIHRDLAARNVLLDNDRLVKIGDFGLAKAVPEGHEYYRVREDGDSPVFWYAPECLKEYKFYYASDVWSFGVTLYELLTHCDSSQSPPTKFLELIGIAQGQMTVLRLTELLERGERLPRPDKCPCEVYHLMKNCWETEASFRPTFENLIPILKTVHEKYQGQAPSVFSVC
Description: as §1, §2, §3

Chain of JAK1 (P23458 whole entry, species assumed): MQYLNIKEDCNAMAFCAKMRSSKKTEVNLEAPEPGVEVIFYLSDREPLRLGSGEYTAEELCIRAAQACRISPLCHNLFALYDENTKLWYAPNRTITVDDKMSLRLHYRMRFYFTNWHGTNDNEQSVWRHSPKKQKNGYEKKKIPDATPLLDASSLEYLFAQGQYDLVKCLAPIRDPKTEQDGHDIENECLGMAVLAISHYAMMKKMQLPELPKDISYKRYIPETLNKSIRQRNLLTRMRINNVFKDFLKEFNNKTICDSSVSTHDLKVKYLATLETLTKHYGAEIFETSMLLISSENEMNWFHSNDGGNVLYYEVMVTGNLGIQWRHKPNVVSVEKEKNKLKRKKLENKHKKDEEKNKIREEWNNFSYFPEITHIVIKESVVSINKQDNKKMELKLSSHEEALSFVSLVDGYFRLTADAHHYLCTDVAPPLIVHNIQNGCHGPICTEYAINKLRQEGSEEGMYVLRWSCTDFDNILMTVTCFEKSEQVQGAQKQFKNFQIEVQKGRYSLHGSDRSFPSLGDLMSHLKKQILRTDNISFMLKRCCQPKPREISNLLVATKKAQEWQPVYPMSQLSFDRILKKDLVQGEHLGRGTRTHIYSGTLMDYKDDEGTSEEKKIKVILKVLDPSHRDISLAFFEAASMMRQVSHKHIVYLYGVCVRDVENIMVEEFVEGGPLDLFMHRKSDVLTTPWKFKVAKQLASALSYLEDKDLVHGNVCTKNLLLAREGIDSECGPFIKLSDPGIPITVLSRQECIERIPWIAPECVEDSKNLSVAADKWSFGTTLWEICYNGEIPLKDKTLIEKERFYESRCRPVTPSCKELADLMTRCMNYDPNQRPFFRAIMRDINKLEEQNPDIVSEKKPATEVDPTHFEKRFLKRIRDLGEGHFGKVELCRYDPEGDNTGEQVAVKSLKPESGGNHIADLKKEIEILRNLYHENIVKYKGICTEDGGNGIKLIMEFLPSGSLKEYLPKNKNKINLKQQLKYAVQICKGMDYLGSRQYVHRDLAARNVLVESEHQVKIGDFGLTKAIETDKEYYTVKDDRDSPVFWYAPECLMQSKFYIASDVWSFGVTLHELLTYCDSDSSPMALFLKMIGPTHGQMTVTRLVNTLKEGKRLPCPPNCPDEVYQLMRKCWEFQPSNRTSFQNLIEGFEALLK

IC50 (JAK1) [nM] | IC50 (TYK2) [nM] | SMILES
< 10 | < 10 | Cc1cc(Nc2ncc(C)c(N3CC(CC#N)(N4CCN(C5CC5)CC4)C3)n2)sn1 [E54]
< 50 | < 50 | Cc1cc(Nc2ncc(C)c(N3CC(CC#N)(N4CCN(C(C)C)CC4)C3)n2)sn1 [E55]
< 10 | < 10 | Cc1cc(Nc2ncc(C)c(N3CC(CC#N)(N4CCN(CCF)CC4)C3)n2)sn1 [E55a]
< 50 | < 50 | Cc1cc(Nc2ncc(C)c(N3CC(CC#N)(N4CCN5CCC[C@@H]5C4)C3)n2)sn1 [E61a]
< 50 | < 50 | Cc1cc(Nc2ncc(C)c(N3CC(CC#N)(N4CCN5CCC[C@H]5C4)C3)n2)sn1 [E62a]
< 100 | < 50 | C#CCC1(O)CN(c2nc(Nc3cc(C)ns3)ncc2C)C1 [E63a]
< 10 | < 10 | Cc1cc(Nc2ncc(C)c(N3CC(CC#N)(N4CCN(C5CCC5)CC4)C3)n2)sn1 [E64a]
< 1000 | < 50 | CCOC(=O)CC1(N2CCCCC2)CN(c2nc(Nc3cc(C)ns3)ncc2C)C1 [E65a]
< 50 | < 10 | Cc1cc(Nc2ncc(C)c(N3CC(CCO)(N4CCCCC4)C3)n2)sn1 [E66a]
< 10 | < 10 | Cc1cc(Nc2ncc(C)c(N3CC(CC#N)(N4CCN5C[C@H](F)C[C@H]5C4)C3)n2)sn1 [E67a]
< 500 | < 500 | Cc1cc(Nc2ncc(C)c(N3CC(CC#N)(NCC4CN(C)C4)C3)n2)sn1 [E68a]
< 10 | < 10 | COC1CCN(C2(CC#N)CN(c3nc(Nc4cc(C)ns4)ncc3C)C2)CC1 [E69a]
< 20 | < 10 | Cc1cc(Nc2ncc(C)c(N3CC(CC#N)(N4CCN5C[C@@H](F)C[C@@H]5C4)C3)n2)sn1 [E70a]
< 10 | < 10 | CO[C@H]1C[C@H]2CN(C3(CC#N)CN(c4nc(Nc5cc(C)ns5)ncc4C)C3)CCN2C1 [E71a]
< 10 | < 10 | CO[C@@H]1C[C@H]2CN(C3(CC#N)CN(c4nc(Nc5cc(C)ns5)ncc4C)C3)CCN2C1 [E72a]
< 100 | < 100 | Cc1cc(Nc2ncc(C)c(N3CC(CC#N)(N4CCN5CCN(C)CC5C4)C3)n2)sn1 (stereo not shown) [E73a]
< 500 | < 20 | Cc1cc(Nc2ncc(F)c(N3CC(CC#N)(N4CCCCC4)C3)n2)sn1 [E74a]
< 10 | < 10 | COCCN1CCN(C2(CC#N)CN(c3nc(Nc4cc(C)ns4)ncc3C)C2)CC1 [E75]
< 50 | < 10 | Cc1cc(Nc2ncc(C)c(N3CC(CC#N)(N4CCN5C[C@H](F)C[C@@H]5C4)C3)n2)sn1 [E75a]
< 10 | < 10 | Cc1cc(Nc2ncc(C)c(N3CC(CC#N)(N4CCN5CC6(CC6)C[C@H]5C4)C3)n2)sn1 [E76a]
< 50 | < 10 | Cc1cc(Nc2ncc(C)c(N3CC(CC#N)(N4CCN5CCOC[C@@H]5C4)C3)n2)sn1 [E77a]

IC50 (JAK1) [nM] | IC50 (TYK2) [nM] | SMILES
< 10 | < 10 | Cc1cc(Nc2ncc(C)c(N3CC(CC#N)(N4CCN5CCOC[C@H]5C4)C3)n2)sn1 [E78a]
< 50 | < 10 | Cc1cnc(Nc2ccc(C3(O)COC3)cc2)nc1N1CC(CC#N)(N2CCN(C)CC2)C1 [E79a]
< 20 | < 20 | Cc1cnc(Nc2cnn(C)c2)nc1N1CC(CC#N)(N2CCN(C)CC2)C1 [E80, 2-(1-(5-methyl-2-((1-methyl-1H-pyrazol-4-yl)amino)pyrimidin-4-yl)-3-(4-methylpiperazin-1-yl)azetidin-3-yl)acetonitrile]
< 10 | < 10 | Cc1cc(Nc2ncc(C)c(N3CC(CC#N)(N4CCN5CCCC[C@H]5C4)C3)n2)sn1 [E80a]
< 10 | < 10 | Cc1cnc(Nc2cnn(C)c2)nc1N1CC(CC#N)(N2CCC3(CC2)CC3(F)F)C1 [E81]
< 20 | < 20 | Cc1cc(Nc2ncc(C)c(N3CC(CC#N)(N4CCN5CC(F)(F)C[C@H]5C4)C3)n2)sn1 [E81a]
< 20 | < 20 | Cc1cnc(Nc2cnn(C)c2)nc1N1CC2(C1)CC2(F)F [E82]
< 50 | < 20 | Cc1cc(Nc2nccc(N3CC(CC#N)(N4CCN5CC6(CC6)C[C@H]5C4)C3)n2)sn1 [E82a]
< 100 | < 50 | Cc1cc(Nc2ncc(C)c(N3CC(CC#N)(N4CCN5CCC[C@]5(C)C4)C3)n2)sn1 [E83a]
< 10 | < 10 | Cc1cc(Nc2ncc(C)c(N3CC(CC#N)(N4CCN5CCC[C@@]5(C)C4)C3)n2)sn1 [E84a]
< 50 | < 10 | Cc1cc(Nc2ncc(C)c(N3CC(CC#N)(N4CCN5CCCC[C@@H]5C4)C3)n2)sn1 [E85a]
< 100 | < 20 | Cc1cc(Nc2ncc(C)c(N3CC(CC#N)(N4CCN5CC6CC5(C6)C4)C3)n2)sn1 [E86a]
< 10 | < 10 | Cc1cc(Nc2ncc(C)c(N3CC(CC#N)(N4CCCN5CCC[C@H]5C4)C3)n2)sn1 [E87a]
< 10 | < 10 | Cc1cc(Nc2ncc(C)c(N3CC(CC#N)(N4CC5(C4)CC5(F)F)C3)n2)sn1 [E88a]
< 100 | < 50 | Cc1cc(Nc2ncc(C)c(N3CC(CC#N)(N4CCN5CCC5C4)C3)n2)sn1 (stereo not shown) [E89a]
< 10 | < 10 | Cc1cc(Nc2ncc(C)c(N3CC(CC#N)(N4CCn5cccc5C4)C3)n2)sn1 [E90a]
< 10 | < 10 | Cc1cc(Nc2ncc(C)c(N3CC(CC#N)(N4CCn5c(cnc5C)C4)C3)n2)sn1 [E91a]
< 10 | < 10 | Cc1cc(Nc2ncc(C)c(N3CC(CC#N)(N4C[C@@H]5OCCO[C@@H]5C4)C3)n2)sn1 [E92a]
< 10 | < 10 | Cc1cc(Nc2ncc(C)c(N3CC(CC#N)(N4CCn5cncc5C4)C3)n2)sn1 [E93a]
< 10 | < 10 | Cc1cc(Nc2ncc(C)c(N3CC(CC#N)(N4CCN(C)C5CC54)C3)n2)sn1 (stereo not shown) [E94a]
< 50 | < 10 | Cc1cc(Nc2ncc(C)c(N3CC(CC#N)(N4CC5(CC5)C4)C3)n2)sn1 [E95a]

IC50 (JAK1) [nM] | IC50 (TYK2) [nM] | SMILES
< 100 | < 50 | CCS(=O)(=O)C1CN(C2(CC#N)CN(c3nc(Nc4cc(C)ns4)ncc3C)C2)C1 [E96a]
< 50 | < 10 | Cc1cc(Nc2nccc(N3CC(CC#N)(N4CCN5C[C@H](F)C[C@H]5C4)C3)n2)sn1 [E97a]
< 50 | < 10 | Cc1cc(Nc2ncc(C)c(N3CC(CC#N)(N4CC5OCCN(C)C5C4)C3)n2)sn1 (stereo not shown) [E98a]
< 10 | < 10 | Cc1cc(Nc2ncc(C)c(N3CC(CC#N)(OC4CC5(CC5)C4)C3)n2)sn1 [E99a]
< 10 | < 10 | COC(=O)CC1(N2CCN3CCC[C@H]3C2)CN(c2nc(Nc3cc(C)ns3)ncc2C)C1 [E100a]
< 10 | < 10 | COc1cnc(Nc2cc(C)ns2)nc1N1CC(CC#N)(N2CCN3C[C@H](F)C[C@H]3C2)C1 [E101a]
< 10 | < 10 | Cc1cc(Nc2ncc(C3CC3)c(N3CC(CC#N)(N4CCN5C[C@H](F)C[C@H]5C4)C3)n2)sn1 [E102a]
< 10 | < 10 | Cc1cc(Nc2ncc(C)c(N3CC(CCO)(N4CCN5CCC[C@H]5C4)C3)n2)sn1 [E103a]
< 100 | < 100 | Cc1cc(Nc2ncc(C)c(N3CC(CC#N)(N4C[C@H]5CN(C)C[C@H]5C4)C3)n2)sn1 [E104a]
< 100 | < 50 | Cc1cc(Nc2ncc(C)c(N3CC(CC#N)(N4CC5CN(C)CC5C4)C3)n2)sn1 (stereo not shown) [E105a]
< 10 | < 10 | Cc1cc(Nc2ncc(C)c(N3CC(CC#N)(OC4CC5(C4)CC5(F)F)C3)n2)sn1 (stereo not shown) [E106a]
< 100 | < 50 | Cc1cc(Nc2ncc(C)c(N3CC(C4CC4)(N4CCCCC4)C3)n2)sn1 [E107a]
< 50 | < 10 | Cc1cc(Nc2ncc(C)c(N3CC(C4CC4)C3)n2)sn1 [E108a]
< 50 | < 10 | Cc1cc(Nc2ncc(C)c(N3CC(CC4CC4)C3)n2)sn1 [E109a]
< 50 | < 10 | Cc1cc(Nc2ncc(C)c(N3CC(N4CCN5C[C@H](F)C[C@H]5C4)C3)n2)sn1 [E110a]
< 10 | < 10 | Cc1cnc(Nc2ccc3c(c2)CN(C)C3)nc1N1CC(CC#N)(N2CCCC3(C2)CC3(F)F)C1 (stereo not shown) [E111, 2-(3-(1,1-difluoro-5-azaspiro[2.5]octan-5-yl)-1-(5-methyl-2-((2-methylisoindolin-5-yl)amino)pyrimidin-4-yl)azetidin-3-yl)acetonitrile]
< 10 | < 10 | Cc1cc(Nc2ncc(C)c(N3CC(CC#N)(N4CCN5CC(C)(C)C[C@H]5C4)C3)n2)sn1 [E111a]
< 50 | < 50 | Cc1cc(Nc2ncc(C)c(N3CC(CC#N)(N4CC5(C4)CC(F)(F)CO5)C3)n2)sn1 [E112a]
< 10 | < 10 | Cc1cnc(Nc2ccc3c(c2)CN(C)C3)nc1N1CC(CC#N)(N2CCC3(CC2)CC3(F)F)C1 [E113]
< 10 | < 10 | Cc1cc(Nc2ncc(C)c(N3CC(CCCl)(N4CCCCC4)C3)n2)sn1 [E113a]
